The record followed here is patent US20070049518A1, “Novel method of treatment of inflammatory skin conditions” (priority 2005, published 2007).

One may read the inhibition as the drop in the measured response relative to a control, in per cent.

The subject of series [1] is protease activity in skin wash samples from patients with acute AD. Nature of the series: Protease activity in skin wash samples, fluorogenic enzyme assay. It is filed as biochemical, human. How it is done: A method has been developed to evaluate protease activity in skin washings. Skin washings from patients with acute eczema may be obtained by aspirating 0.5 ml sterile physiological saline over the skin surface using a sterile, disposable plastic Pasteur pipette The skin area ( 1 cm^2) is defined by a sterile open-ended plastic cylinder. […] Samples were incubated at 37° C. in a POLARstar Optima plate reader (BMG Labtech Ltd.) and fluorescence readings (320 nm excitation/405 nm emission) taken every 15 min for 6 h. Activity was expressed as the rate of increase in fluorescence as a function of time.

The test system of series [2] is V8 protease in S. aureus 8325-4 culture supernatant. Nature of the series: V8 protease activity in supernatant of S. aureus grown with compound. It is filed as cell-based, Staphylococcus aureus. On the procedure: (§1) Duplicate samples of brain heart infusion medium (5 ml; Becton Dickinson and Co.) containing 10% skimmed milk and 2% (v/v) DMSO vehicle±Compound 12 were inoculated with S. aureus 8325-4 (approximately 10^7 cells in tryptic soy broth) and incubated for 16 h at 37° C./220 rpm. Cultures were centrifuged to remove bacteria and the culture supernatants stored at −70° C. pending analysis of protease activity.
(§2) Enzyme activities were measured in mixtures containing 90 mM MOPS (sodium) buffer pH 7.0 (0.1 ml), 0.045% Brij 35, 2% (v/v) DMSO vehicle±Compound 12 and culture supernatant (4 μl). The concentration of compound used was the same as that which had been used to culture the assayed sample. Further additions to the reaction mixtures were as follows. Aureolysin assay: 4.5 mM calcium chloride, 9 μM E-64 (to inhibit cysteine protease activity) and 10 μM Mca-Pro-Leu-Gly-Leu-Dap(Dnp)-Ala-Arg-amide (Bachem); V8 protease assay: 10 μM Mca-Leu-Glu-Val-Asp-Gly-Trp-Lys(Dnp)-amide (Bachem); cysteine protease assay: 1.8 mM cysteine-HCl (pH-adjusted with NaOH), 9 mM EDTA and 0.1 mM Z-Phe-Arg-AMC hydrochloride (Bachem). The rate of product formation at 37° C. was monitored over 6 h taking readings at 15 min intervals using a POLARstar OPTIMA plate reader (BMG LABTECH Ltd) with 320 nm excitation/405 nm emission for aureolysin and V8 assays and 390 nm excitation/460 nm emission for the cysteine protease assay. Enzyme activities were determined from the linear rate of fluorescence increase and converted to percent inhibition by reference to vehicle control samples.

Another series in a line: Solubility in water. It is filed as physicochemical. The following applies: particularly when the solid is in amorphous form.
The subject of series [3] is Aureolysin in S. aureus 8325-4 culture supernatant. Nature of the series: Aureolysin activity in supernatant of S. aureus grown with compound. It is filed as cell-based, Staphylococcus aureus. How it is done:
as §1, §2

Series [4] concerns the target T1, recombinant human cathepsin D (Homo sapiens, UniProt P07339).
T1 construct: recombinant human cathepsin D (R&D Systems Inc); purchased R&D Systems Inc
Nature of the series: Selectivity profile, cathepsin D. The following applies: read-out: inhibition at 0.1 mM, Cathepsin D. It is filed as biochemical. On the procedure:
(§3) Inhibitory activity was tested in reaction mixtures (0.1 ml) containing 2% (v/v) DMSO vehicle±compound plus additions as follows. V8 protease: 90 mM MOPS (sodium) buffer pH 7.0, […] calcium chloride, 0.045% Brij 35, 10 μM Mca-Leu-Glu-Val-Asp-Gly-Trp-Lys(Dnp)-amide (Bachem) and V8 (BioCentrum Ltd; 30 ng). Staphopain A and B: 90 mM MOPS (sodium) buffer pH 7.0, 1.8 mM cysteine-HCl (pH-adjusted with NaOH), 0.045% Brij 35, 0.1 mM Z-Phe-Arg-AMC hydrochloride (Bachem) and staphopain A or B (BioCentrum Ltd; 30 ng). Human kallikrein 5: 0.1M sodium phosphate buffer pH 8.0, 0.045% Brij 35, 0.1 mM Boc-Val-Pro-Arg-AMC (Sigma) and recombinant human kallikrein 5 (R&D Systems Inc; 6 ng). Human kallikrein 7: 72 mM Tris-HCl pH 8.0, 0.033% Brij 35, 1.2 mM S-2586 (Chromogenix Instrumentation Laboratory SpA) and recombinant human kallikrein 7 (R&D Systems Inc; 0.6 μg) that had been thermolysin-activated according to the manufacturer's instructions. Human angiotensin-converting enzyme (ACE): 45 mM MES (sodium) buffer pH 6.5, 0.045% Brij 35, 10 μM Mca-[…]Dnp)-OH(R&D Systems Inc) and recombinant human ACE (R&D Systems Inc; 1.3 ng). Human cathepsin D: 0.1M sodium acetate buffer pH 3.5, 0.2M sodium chloride, 0.045% Brij 35, 10 μM Mca-Pro-Leu-Gly-Leu-Dap(Dnp)-Ala-Arg-amide (Bachem) and recombinant human cathepsin D (R&D Systems Inc; 8 ng) activated according to the manufacturer's instructions. […]

The next series concerns the target T2, recombinant human ACE (Homo sapiens, UniProt P12821).
T2 construct: purchased R&D Systems Inc
Nature of the series: Selectivity profile, ACE. It is filed as biochemical. The following applies: read-out: inhibition at 0.1 mM, ACE. How it is done:
as §3

Where [5] appears, read: Compound 12 40 μM in culture and assay.
Setting [6] is: Compound 12 79 μM in culture and assay.
Where [7] appears, read: Compound 12 159 μM in culture and assay.
Setting [8] is: Compound 12 317 μM in culture and assay.

T2 sequence (P12821 30-1306): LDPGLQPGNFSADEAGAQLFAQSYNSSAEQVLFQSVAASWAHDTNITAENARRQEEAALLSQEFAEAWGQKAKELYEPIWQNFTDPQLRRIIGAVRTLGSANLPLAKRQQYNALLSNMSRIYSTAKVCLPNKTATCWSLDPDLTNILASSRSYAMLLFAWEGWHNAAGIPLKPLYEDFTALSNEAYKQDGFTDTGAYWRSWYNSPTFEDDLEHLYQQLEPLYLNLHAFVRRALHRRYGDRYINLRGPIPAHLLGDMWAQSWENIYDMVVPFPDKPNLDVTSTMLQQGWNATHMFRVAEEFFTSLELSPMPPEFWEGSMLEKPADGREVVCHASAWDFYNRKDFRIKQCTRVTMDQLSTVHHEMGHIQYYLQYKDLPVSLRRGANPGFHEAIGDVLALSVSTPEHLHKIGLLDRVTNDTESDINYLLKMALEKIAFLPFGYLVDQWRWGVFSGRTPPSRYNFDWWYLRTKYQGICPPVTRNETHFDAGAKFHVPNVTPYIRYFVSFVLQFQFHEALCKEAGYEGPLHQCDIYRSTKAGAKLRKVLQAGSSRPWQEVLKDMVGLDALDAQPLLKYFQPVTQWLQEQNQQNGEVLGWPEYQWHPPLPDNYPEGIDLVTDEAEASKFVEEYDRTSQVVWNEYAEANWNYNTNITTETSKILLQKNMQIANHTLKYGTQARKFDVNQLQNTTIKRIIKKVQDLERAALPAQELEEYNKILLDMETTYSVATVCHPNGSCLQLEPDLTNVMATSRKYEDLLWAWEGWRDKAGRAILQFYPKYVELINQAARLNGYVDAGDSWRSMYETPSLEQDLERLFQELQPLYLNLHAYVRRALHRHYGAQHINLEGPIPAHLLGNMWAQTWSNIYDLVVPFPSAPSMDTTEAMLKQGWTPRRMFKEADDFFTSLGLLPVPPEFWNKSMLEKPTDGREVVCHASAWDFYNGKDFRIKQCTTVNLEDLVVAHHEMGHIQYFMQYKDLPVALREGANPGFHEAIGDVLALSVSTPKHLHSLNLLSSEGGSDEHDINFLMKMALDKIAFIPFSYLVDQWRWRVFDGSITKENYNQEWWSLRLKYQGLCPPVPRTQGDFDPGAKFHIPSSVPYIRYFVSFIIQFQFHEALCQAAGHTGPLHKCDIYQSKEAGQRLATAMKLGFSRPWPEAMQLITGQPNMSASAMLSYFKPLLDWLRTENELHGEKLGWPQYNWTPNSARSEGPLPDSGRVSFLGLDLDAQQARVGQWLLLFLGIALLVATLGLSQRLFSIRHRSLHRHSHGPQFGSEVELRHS
T1 sequence (P07339 65-412): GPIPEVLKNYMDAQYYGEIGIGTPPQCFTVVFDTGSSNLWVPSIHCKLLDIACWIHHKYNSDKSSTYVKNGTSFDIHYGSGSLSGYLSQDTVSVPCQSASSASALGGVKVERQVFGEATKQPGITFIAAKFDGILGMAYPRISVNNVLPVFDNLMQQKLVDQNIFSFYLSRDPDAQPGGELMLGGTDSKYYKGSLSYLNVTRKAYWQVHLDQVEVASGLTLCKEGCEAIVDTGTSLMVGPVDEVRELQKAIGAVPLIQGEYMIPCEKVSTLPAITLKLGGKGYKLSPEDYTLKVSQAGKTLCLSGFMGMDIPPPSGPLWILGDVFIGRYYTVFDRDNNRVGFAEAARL

Consider `CNC(=O)[C@@H](NC(=O)[C@@H](CC(=O)NO)CC(C)C)C(C)(C)C` [Compound 11, (R)—N1-((S)-3,3-dimethyl-1-(methylamino)-1-oxobutan-2-yl)-N4-hydroxy-2-isobutylsuccinamide], for which the “inhibition of protease activity in skin wash samples (in words)” value in series [1] (50 μM, fluorogenic assay, AD patients) is given as “significant inhibition of protease activity”. For the same molecule, the “% Inhibition protease activity with compound 11” value (from here on “% Inhibition protease activity”) was 100% in series [1] (50 μM, skin wash sample 5); 48.7% in series [1] (50 μM, skin wash sample 7); 88.5% in series [1] (50 μM, skin wash sample 14); 96.4% in series [1] (50 μM, skin wash sample 17); 75.6% in series [1] (50 μM, skin wash sample 18); 85.1% in series [1] (50 μM, skin wash sample 21). Besides, the “% Inhibition protease activity” value in series [1] (50 μM, skin wash sample 26) turned out to be 85.3%; in series [1] (50 μM, skin wash sample 30), 100%; in series [1] (50 μM, skin wash sample 36), 95.3%; in series [1] (50 μM, skin wash sample 37) it was 81.8%; in series [1] (50 μM, skin wash sample 39), 100%; in series [1] (50 μM, skin wash sample 40) it was 85.6%. The “% Inhibition protease activity” value in series [1] (50 μM, skin wash sample 43) was 91.8%; in series [1] (50 μM, skin wash sample 48), 96.9%. For the same molecule, the “Protease activity with 50 μM compound 11” value in series [1] (skin wash sample 5) worked out at 0 FIU/min/μl; in series [1] (skin wash sample 7), 0.271 FIU/min/μl; in series [1] (skin wash sample 14) it was 0.0761 FIU/min/μl; in series [1] (skin wash sample 17), 0.123 FIU/min/μl; in series [1] (skin wash sample 18), 0.0674 FIU/min/μl; in series [1] (skin wash sample 21) it was 0.0302 FIU/min/μl. Also, the “Protease activity with 50 μM compound 11” value was 0.00122 FIU/min/μl in series [1] (skin wash sample 24 (activity without compound 0)); 0.0554 FIU/min/μl in series [1] (skin wash sample 26); 0 FIU/min/μl in series [1] (skin wash sample 30); 0.0173 FIU/min/μl in series [1] (skin wash sample 36); 0.126 FIU/min/μl in series [1] (skin wash sample 37); 0 FIU/min/μl in series [1] (skin wash sample 39). For the same molecule, the “Protease activity with 50 μM compound 11” value was 0.103 FIU/min/μl in series [1] (skin wash sample 40), 0.0814 FIU/min/μl in series [1] (skin wash sample 43) and 0.0287 FIU/min/μl in series [1] (skin wash sample 48).
`CNC(=O)[C@@H](NC(=O)[C@H](CC(=O)NO)CC(C)C)C(C)(C)C` [Compound 12, (S)—N1-((S)-3,3-dimethyl-1-(methylamino)-1-oxobutan-2-yl)-N4-hydroxy-2-isobutylsuccinamide]: the “Inhibition (%) V8 protease” value was found to be 83% in series [2] (setting [5]), 91% in series [2] (setting [6]), 97% in series [2] (setting [7]) and 99% in series [2] (setting [8]). Moreover, the “solubility in water (in words)” value in the series “Solubility in water” is recorded as “particularly soluble in water”. In addition, the “Inhibition (%) Aureolysin” value was 89% in series [3] (setting [5]), 94% in series [3] (setting [6]), 98% in series [3] (setting [7]) and 99% in series [3] (setting [8]). The inhibition at 100 µM in series [4] came out at 1%; on recombinant human ACE, 0%.
